Experiments:
[1] = molecular target: T1, Recombinant human His-tagged Kat6a protein (amino acids 194-810) (Homo sapiens, UniProt Q92794); test: Kat6a activity assay (TR-FRET, acetylation of Histone-H4-derived peptide); format: biochemical; conditions: 60 mins at 22° C., 220 nM H4 peptide, 600 nM Acetyl Coenzyme A, read-out: KAT6A - DPF/HAT domain IC50 [mol/l] (arithmetic mean)
T1 construct: Kat6a protein (amino acids 194-810); His

[2] = tested on: ESR1 transcription in MVLN cells; test: MVLN reporter assay: repression of ESR1 transcription (luciferase signal); format: cell-based; conditions: Homo sapiens, MVLN, 24 h, luciferase signal after 24 h, read-out: MVLN reporter assay, IC50 [M] (arithmetic mean)
Procedure, shortened: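 To control for cell loss, Alamar Blue (2 h, 530/590 nm) precedes the 24 h luciferase measurement. The reporter is an ERE from the Xenopus vitellogenin A2 gene driving luciferase, stably transfected into ER-expressing MVLN cells; duplicate samples.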

[3] = tested on: MDA-MB-436 cells; test: MDA-MB-436 proliferation assay (negative control cell line); format: cell-based; conditions: Homo sapiens, 144 h, Alamar Blue, read-out: MDA-MB-436 proliferation assay, EC50 [M] (arithmetic mean)
Text: For compound characterization cell survival assays were routinely run in two cell lines. ZR-75-1 is a breast carcinoma cell line containing a focal KAT6A amplification and high KAT6A protein expression. Proliferation of this cell line is inhibited upon treatment with KAT6A inhibitors. As a negative control cell line MDA-MB-436 were used. These cells carry a […] deletion of the KAT6A gene, have a low KAT6A protein expression and are not growth inhibited upon treatment with KAT6A inhibitors.
For measurements cell lines were plated at the below indicated concentration per […] in 96-well plates in a humidified incubator at 37° C. and 5% CO2.
MDA-MB-436 (CLS, 300278; breast adenocarcinoma); 3000 cells per well; culture medium: DMEM/Ham's F12 (Biochrom #FG 4815) medium containing 2.5% FBS (Biochrom #S0615).
Each sample was prepared as triplicate and rim wells were excluded. Plates were incubated at 37° C. and 5% CO2 for 144 h. Cell viability was measured by adding 10 μL of Alamar Blue Reagent (Invitrogen #DAL 1100) and plates were incubated for 2 h at 37° C. and 5% CO2. Fluorescence was measured at 590 nm wavelength with a Tecan Spark or Victor X3 MTP-Reader (PerkinElmer).

T1 sequence (Q92794 194-810): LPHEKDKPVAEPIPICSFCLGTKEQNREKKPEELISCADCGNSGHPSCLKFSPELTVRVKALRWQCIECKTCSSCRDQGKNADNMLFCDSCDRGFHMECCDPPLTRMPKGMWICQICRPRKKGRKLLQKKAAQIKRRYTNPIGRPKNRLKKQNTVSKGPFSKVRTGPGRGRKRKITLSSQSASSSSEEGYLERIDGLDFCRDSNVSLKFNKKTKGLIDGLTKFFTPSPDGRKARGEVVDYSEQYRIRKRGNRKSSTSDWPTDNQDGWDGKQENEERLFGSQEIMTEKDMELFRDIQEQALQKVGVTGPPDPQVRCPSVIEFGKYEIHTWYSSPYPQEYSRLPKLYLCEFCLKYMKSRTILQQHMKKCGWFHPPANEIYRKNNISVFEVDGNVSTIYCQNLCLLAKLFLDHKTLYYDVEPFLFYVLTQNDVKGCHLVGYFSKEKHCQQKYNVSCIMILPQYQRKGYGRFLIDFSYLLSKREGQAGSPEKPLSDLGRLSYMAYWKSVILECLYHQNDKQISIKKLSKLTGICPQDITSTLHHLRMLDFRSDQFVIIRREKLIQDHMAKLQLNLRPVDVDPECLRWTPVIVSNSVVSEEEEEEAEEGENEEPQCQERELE

| IC50 [1] [nM] | IC50 [2] [M] | EC50 [3] [M] | Compound |
| --- | --- | --- | --- |
| 189 | 7.22e-07 | > 2e-05 | CCOc1ccccc1S(=O)(=O)NC(=O)c1cc2c(F)cc(N3CCC3C)cc2o1 (racemic) [Example 223, N-(2-Ethoxyphenyl)sulfonyl-4-fluoro-6-(2-methylazetidin-1-yl)benzofuran-2-carboxamide (rac)] |
| 6520 | > 2e-05 | > 2e-05 | CCOc1ccccc1S(=O)(=O)NC(=O)c1cc2ccc(N3CC(c4ccccc4)C3)cc2o1 [Example 120, N-(2-ethoxybenzene-1-sulfonyl)-6-(3-phenylazetidin-1-yl)-1-benzofuran-2-carboxamide] |
| > 20000 | > 2e-05 | > 2e-05 | CCOc1ccccc1S(=O)(=O)NC(=O)c1cc2ccc(N3CC4(CC4)C3)cc2o1 [Example 122, 6-(5-Azaspiro[2.3]hexan-5-yl)-N-(2-ethoxybenzene-1-sulfonyl)-1-benzofuran-2-carboxamide] |
| > 20000 | > 2e-05 | > 2e-05 | CCOc1ccccc1S(=O)(=O)NC(=O)c1cc2ccc(N3CC(C)(C)C3)cc2o1 [Example 124, 6-(3,3-dimethylazetidin-1-yl)-N-(2-ethoxybenzene-1-sulfonyl)-1-benzofuran-2-carboxamide] |
| 16.5 | 9.74e-08 | > 2e-05 | CCOc1ccc(Br)cc1S(=O)(=O)NC(=O)c1cc2c(F)cc(N3CCC3)cc2o1 [Example 135, 6-(Azetidin-1-yl)-N-(5-bromo-2-ethoxybenzene-1-sulfonyl)-4-fluoro-1-benzofuran-2-carboxamide] |
| 110 | 4.44e-07 | – | CCOc1c(F)cccc1S(=O)(=O)NC(=O)c1cc2c(F)cc(N3CCC3)cc2o1 [Example 206, 6-(azetidin-1-yl)-N-(2-ethoxy-3-fluoro-phenyl)sulfonyl-4-fluoro-benzofuran-2-carboxamide] |
| 45.4 | 7.78e-08 | – | CCOc1cc(F)ccc1S(=O)(=O)NC(=O)c1cc2c(F)cc(N3CCC3)cc2o1 [Example 208, 6-(Azetidin-1-yl)-N-(2-ethoxy-4-fluoro-phenyl)sulfonyl-4-fluoro-benzofuran-2-carboxamide] |
| 52.6 | 1.13e-07 | – | CCOc1ccc(F)cc1S(=O)(=O)NC(=O)c1cc2c(F)cc(N3CCC3)cc2o1 [Example 210, 6-(Azetidin-1-yl)-N-(2-ethoxy-5-fluoro-phenyl)sulfonyl-4-fluoro-benzofuran-2-carboxamide] |
| 7.58 | 2.44e-07 | – | CCOc1ccc(Oc2ccccc2)cc1S(=O)(=O)NC(=O)c1cc2c(F)cc(N3CCC3)cc2o1 [Example 211, 6-(Azetidin-1-yl)-N-(2-ethoxy-5-phenoxy-phenyl)sulfonyl-4-fluoro-benzofuran-2-carboxamide] |
| 271 | 1.91e-06 | > 2e-05 | Cc1ccc2cccc(S(=O)(=O)NC(=O)c3cc4c(F)cc(N5CCC5(C)C)cc4o3)c2n1 [Example 218, 6-(2,2-Dimethylazetidin-1-yl)-4-fluoro-N-[(2-methyl-8-quinolyl)sulfonyl]benzofuran-2-carboxamide] |

The next lines start with the compound.

| Compound | IC50 [1] [nM] | IC50 [2] [M] | EC50 [3] [M] |
| --- | --- | --- | --- |
| CC1CCN1c1cc(F)c2cc(C(=O)NS(=O)(=O)c3ccccc3)oc2c1 (racemic) [Example 220, N-(Benzenesulfonyl)-4-fluoro-6-(2-methylazetidin-1-yl)benzofuran-2-carboxamide (rac)] | 982 | 6.23e-06 | > 2e-05 |
| Cc1ccc2cccc(S(=O)(=O)NC(=O)c3cc4c(F)cc(N5CCC5C)cc4o3)c2n1 (racemic) [Example 221, 4-Fluoro-6-(2-methylazetidin-1-yl)-N-[(2-methyl-8-quinolyl)sulfonyl]benzofuran-2-carboxamide (rac)] | 61.5 | 3.82e-07 | > 2e-05 |
| CC1CCN1c1cc(F)c2cc(C(=O)NS(=O)(=O)c3ccccc3-c3ccccc3)oc2c1 (racemic) [Example 222, 4-Fluoro-6-(2-methylazetidin-1-yl)-N-(2-phenylphenyl)sulfonyl-benzofuran-2-carboxamide (rac)] | 129 | 1.44e-06 | > 2e-05 |
| O=C(NS(=O)(=O)c1ccccc1-c1ccccc1)c1cc2c(F)cc(N3CCC3)cc2o1 [Example 19, 6-(Azetidin-1-yl)-N-([1,1′-biphenyl]-2-sulfonyl)-4-fluoro-1-benzofuran-2-carboxamide] | 18.8 | 2.06e-07 | > 2e-05 |
| CCc1cccc(OC)c1S(=O)(=O)NC(=O)c1cc2c(F)cc(N3CCC3)cc2o1 [Example 136, 6-(azetidin-1-yl)-N-(2-ethyl-6-methoxybenzene-1-sulfonyl)-4-fluoro-1-benzofuran-2-carboxamide] | 45.6 | 1.4e-07 | > 2e-05 |
| O=C(NS(=O)(=O)c1ccccc1OC(F)(F)F)c1cc2c(F)cc(N3CCC3)cc2o1 [Example 138, 6-(Azetidin-1-yl)-4-fluoro-N-[2-(trifluoromethoxy)benzene-1-sulfonyl]-1-benzofuran-2-carboxamide] | 69.4 | 2.06e-07 | > 2e-05 |
| O=C(NS(=O)(=O)c1cccc2c1OC(F)(F)C(F)(F)O2)c1cc2c(F)cc(N3CCC3)cc2o1 [Example 140, 6-(Azetidin-1-yl)-4-fluoro-N-(2,2,3,3-tetrafluoro-2,3-dihydro-1,4-benzodioxine-5-sulfonyl)-1-benzofuran-2-carboxamide] | 27.6 | 2.91e-07 | > 2e-05 |
| COc1ccc(N2CCN(C)CC2)cc1S(=O)(=O)NC(=O)c1cc2c(F)cc(N3CCC3)cc2o1 [Example 202, 6-(Azetidin-1-yl)-4-fluoro-N-[2-methoxy-5-(4-methylpiperazin-1-yl)benzene-1-sulfonyl]-1-benzofuran-2-carboxamide] | 84.5 | 1.04e-06 | – |
| COc1ccc(C2=CCN(C)CC2)cc1S(=O)(=O)NC(=O)c1cc2c(F)cc(N3CCC3)cc2o1 [Example 203, 6-(Azetidin-1-yl)-4-fluoro-N-[2-methoxy-5-(1-methyl-1,2,3,6-tetrahydropyridin-4-yl)benzene-1-sulfonyl]-1-benzofuran-2-carboxamide] | 156 | 3.78e-06 | – |
| CCOc1ccc(OC(F)(F)F)cc1S(=O)(=O)NC(=O)c1cc2c(F)cc(N3CCC3)cc2o1 [Example 212, 6-(Azetidin-1-yl)-N-[2-ethoxy-5-(trifluoromethoxy)phenyl]sulfonyl-4-fluoro-benzofuran-2-carboxamide] | 36.4 | 1.59e-07 | – |
| CC1(C)CCN1c1cc(F)c2cc(C(=O)NS(=O)(=O)c3ccccc3)oc2c1 [Example 216, N-(benzenesulfonyl)-6-(2,2-dimethylazetidin-1-yl)-4-fluoro-benzofuran-2-carboxamide] | 9560 | > 2e-05 | > 2e-05 |
| CC1(C)CCN1c1cc(F)c2cc(C(=O)NS(=O)(=O)c3ccccc3-c3ccccc3)oc2c1 [Example 217, 6-(2,2-Dimethylazetidin-1-yl)-4-fluoro-N-(2-phenylphenyl)sulfonyl-benzofuran-2-carboxamide] | – | 1.05e-05 | > 2e-05 |
| CC(C)c1ccc(OC2CCC2)c(S(=O)(=O)NC(=O)c2cc3c(F)cc(N4CCC4)cc3o2)c1 [Example 230, 6-(Azetidin-1-yl)-N-[(2-cyclobutoxy-5-isopropylphenyl)sulfonyl]-4-fluorobenzofuran-2-carboxamide] | 7.71 | 8.72e-08 | – |

Reference: patent US20240279207A1, “SUBSTITUTED ACYL SULFONAMIDES FOR TREATING CANCER” (The Broad Institute, Inc., priority 2020, published 2024)
